The source of these data is ChEMBL document CHEMBL5236644, “Multitargeting approaches to cognitive impairment: Synthesis of aryl-alkylpiperazines and assessment at cholinesterases, histamine H3 and dopamine D3 receptors” (Bioorg Med Chem, 2023).

As a reminder, the inhibition is the percentage by which the read-out fell short of the control. Read a high inhibition as strong suppression. One may read the IC50 as the concentration at which inhibition is half-maximal. Low readings indicate greater potency, high ones weaker potency. As a reminder, the Ki is the equilibrium dissociation constant of an inhibitor or competing ligand from its target.

Molecules are shown by their SMILES.

Test [1] concerns the target T1, Histamine H3 receptor (Homo sapiens, UniProt Q9Y5N1). The experiment in a line: Inhibition of human H3 receptor at 10 uM incubated for 90 mins by scintillation counting method relative to control.
Test [2] has as its target T2, D(3) dopamine receptor (Homo sapiens, UniProt P35462). The experiment in a line: Inhibition of human D3 receptor expressed in CHO cells at 10 uM by scintillation counting method relative to control. Type of test: cell-based.
For test [3], the target named is Cholinesterase (Equus caballus) (UniProt P81908). The experiment in a line: Inhibition of equine BChE at 100 uM using acetylthiocholine chloride as substrate preincubated for 15 mins followed by substrate addition and measured after 30 mins by DTNB reagent based Ellman's method relative to control. The following applies: time 45.0 min. (In Ellman's method for cholinesterases, released thiocholine reacts with DTNB.)

A further test addresses Acetylcholinesterase (Electrophorus electricus, UniProt O42275). The experiment in a line: Inhibition of electrical eel AChE using acetylthiocholine chloride as substrate preincubated for 15 mins followed by substrate addition and measured after 30 mins by DTNB reagent based Ellman's method.
The target in the next test is Cholinesterase (Equus caballus, UniProt P81908). The experiment in a line: Inhibition of equine BChE using acetylthiocholine chloride as substrate preincubated for 15 mins followed by substrate addition and measured after 30 mins by DTNB reagent based Ellman's method.
Test [4] addresses T1, Histamine H3 receptor. The experiment in a line: Inhibition of human H3 receptor at 1 uM incubated for 90 mins by scintillation counting method relative to control.
In test [5] the target is T2, D(3) dopamine receptor. The experiment in a line: Inhibition of human D3 receptor expressed in CHO cells at 1 uM by scintillation counting method relative to control. Type of test: cell-based.
Test [6] has as its target T1, Histamine H3 receptor. The experiment in a line: Binding affinity to human H3 receptor assessed as inhibition constant incubated for 90 mins by scintillation counting method.
For test [7], the target named is T2, D(3) dopamine receptor. Briefly: Binding affinity to human D3 receptor expressed in CHO cells assessed as inhibition constant by scintillation counting method. In kind it is cell-based.
The target of test [8] is T2, D(3) dopamine receptor. Briefly: Inhibition of human D3 receptor expressed in CHO cells assessed as inhibition constant by scintillation counting method. In kind it is cell-based.
Test [9] has as its target T1, Histamine H3 receptor. The experiment in a line: Inhibition of human H3 receptor incubated for 90 mins by scintillation counting method relative to control.

Chain of Cholinesterase (P81908 whole entry): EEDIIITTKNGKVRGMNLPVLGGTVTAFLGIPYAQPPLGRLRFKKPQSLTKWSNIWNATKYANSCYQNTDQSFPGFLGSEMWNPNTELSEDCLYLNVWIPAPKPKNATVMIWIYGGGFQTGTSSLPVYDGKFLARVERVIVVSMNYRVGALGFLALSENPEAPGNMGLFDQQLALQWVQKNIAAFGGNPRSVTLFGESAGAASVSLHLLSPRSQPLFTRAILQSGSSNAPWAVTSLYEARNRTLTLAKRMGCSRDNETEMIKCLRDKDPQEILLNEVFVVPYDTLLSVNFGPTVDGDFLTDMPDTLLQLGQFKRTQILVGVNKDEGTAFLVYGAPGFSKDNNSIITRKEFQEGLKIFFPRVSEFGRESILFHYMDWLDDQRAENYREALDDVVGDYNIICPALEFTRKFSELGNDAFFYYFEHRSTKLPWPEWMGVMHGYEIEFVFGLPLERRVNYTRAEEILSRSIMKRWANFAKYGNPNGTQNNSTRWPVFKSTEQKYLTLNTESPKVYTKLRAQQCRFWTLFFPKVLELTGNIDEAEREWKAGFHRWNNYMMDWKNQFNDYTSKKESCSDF
Chain of Cholinesterase (Equus caballus) (P81908 whole entry): as above
T2 sequence (P35462 whole entry): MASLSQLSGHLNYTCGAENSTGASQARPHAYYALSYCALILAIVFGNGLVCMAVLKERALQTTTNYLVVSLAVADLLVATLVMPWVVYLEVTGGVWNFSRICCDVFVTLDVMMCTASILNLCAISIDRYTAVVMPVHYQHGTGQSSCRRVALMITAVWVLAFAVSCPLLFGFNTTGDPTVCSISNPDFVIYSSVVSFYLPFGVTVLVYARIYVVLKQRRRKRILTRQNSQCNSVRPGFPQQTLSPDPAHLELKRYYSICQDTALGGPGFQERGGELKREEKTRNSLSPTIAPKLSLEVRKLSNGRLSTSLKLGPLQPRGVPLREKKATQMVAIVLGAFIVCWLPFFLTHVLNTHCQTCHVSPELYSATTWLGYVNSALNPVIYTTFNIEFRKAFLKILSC
T1 sequence (Q9Y5N1 whole entry): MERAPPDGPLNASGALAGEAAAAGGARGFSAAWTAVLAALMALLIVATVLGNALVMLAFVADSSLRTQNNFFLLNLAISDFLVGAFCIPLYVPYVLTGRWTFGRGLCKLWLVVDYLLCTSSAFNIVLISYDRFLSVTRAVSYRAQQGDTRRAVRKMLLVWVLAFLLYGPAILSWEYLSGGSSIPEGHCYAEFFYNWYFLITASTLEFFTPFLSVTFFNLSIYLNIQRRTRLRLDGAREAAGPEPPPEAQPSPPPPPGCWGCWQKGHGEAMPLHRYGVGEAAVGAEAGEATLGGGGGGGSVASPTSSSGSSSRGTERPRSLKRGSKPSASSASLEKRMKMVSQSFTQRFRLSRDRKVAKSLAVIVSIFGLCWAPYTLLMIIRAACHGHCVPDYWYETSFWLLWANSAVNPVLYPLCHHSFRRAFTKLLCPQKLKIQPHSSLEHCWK
Chain of Acetylcholinesterase (O42275 whole entry): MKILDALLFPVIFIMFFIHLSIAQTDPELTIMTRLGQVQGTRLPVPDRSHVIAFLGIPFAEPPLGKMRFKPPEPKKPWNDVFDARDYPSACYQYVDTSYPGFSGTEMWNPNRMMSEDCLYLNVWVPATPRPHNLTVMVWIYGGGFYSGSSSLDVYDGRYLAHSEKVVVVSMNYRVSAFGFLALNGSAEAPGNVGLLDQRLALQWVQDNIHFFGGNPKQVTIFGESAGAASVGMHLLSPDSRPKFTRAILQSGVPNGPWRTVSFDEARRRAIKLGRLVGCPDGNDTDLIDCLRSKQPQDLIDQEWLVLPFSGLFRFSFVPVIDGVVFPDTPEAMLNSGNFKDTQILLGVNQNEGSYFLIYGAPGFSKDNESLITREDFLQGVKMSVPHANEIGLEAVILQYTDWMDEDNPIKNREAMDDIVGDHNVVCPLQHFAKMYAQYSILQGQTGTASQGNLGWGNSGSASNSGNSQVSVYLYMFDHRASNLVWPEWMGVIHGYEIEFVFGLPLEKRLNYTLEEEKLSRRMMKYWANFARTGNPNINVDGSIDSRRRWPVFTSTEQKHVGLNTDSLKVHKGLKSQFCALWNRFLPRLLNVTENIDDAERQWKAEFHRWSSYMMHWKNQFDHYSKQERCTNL

With `c1ccc(N2CCN(CCOc3cccc4ccccc34)CC2)cc1`, the inhibition amounted to 39.8% on Histamine H3 receptor [1], 34.5% against D(3) dopamine receptor [2] and 26% in test [3].

As to `CC(C)N1CCN(CCCCOc2ccc3c(c2)NC(=O)CC3)CC1`, the figures for the IC50 at Acetylcholinesterase and at Cholinesterase were 1.6 µM and 16.7 µM, respectively.

For the molecule `O=C(OCCCN1CCN(c2ccccc2)CC1)c1ccc2ccccc2c1`, the inhibition came to 40.8% at Histamine H3 receptor [1], 65.3% on D(3) dopamine receptor [2] and 16.6% in test [3].

`O=C(OCCCN1CCN(c2ccccc2)CC1)c1cccc2ccccc12` registered an inhibition in test [3] of less than 10%.

In the case of `O=C(NCCCN1CCN(c2ccncc2)CC1)c1cc2ccccc2o1`, the IC50 at Cholinesterase was 85.1 µM. The figures for the inhibition (against Histamine H3 receptor [4]; against D(3) dopamine receptor [5]; in test [3]) were 80.5%, 23.5% and 54.5%, respectively. Besides, the Ki at Histamine H3 receptor [6] is 0.91 µM; at D(3) dopamine receptor [7], greater than 0.01 µM.

`O=C(OCCN1CCN(c2ccccc2)CC1)c1cccc2ccccc12`: the inhibition against Histamine H3 receptor [1] is 71.3%; against D(3) dopamine receptor [2] it was 52.8%; in test [3] it was 24.1%.

`O=C(OCCCN1CCN(c2ccccc2)CC1)c1cc2ccccc2o1` displayed an inhibition in [3] of 46.8%.

`O=C(NCCCCN1CCN(c2ccccc2)CC1)c1ccc2ccccc2c1`: the Ki on D(3) dopamine receptor [8] was 0.00092 µM.

`CN1CCN(CCCOc2ccc3ccccc3c2)CC1`: the IC50 against Cholinesterase is 26.3 µM. Further, the inhibition against Histamine H3 receptor [1] was 80.5%; against D(3) dopamine receptor [2], 22.8%; in [3], 70%. Besides, the inhibition constant (Ki) on Histamine H3 receptor [6] came out at 2.8 µM; at D(3) dopamine receptor [7], 0.0007 µM.

In the case of `O=C(OCCN1CCN(c2ccccc2)CC1)c1ccc2ccccc2c1`, the inhibition on Histamine H3 receptor [1] is 61.5%; against D(3) dopamine receptor [2], 32.8%; in [3], 36.5%.

In the case of `c1ccc(N2CCN(CCCOc3ccc4ccccc4c3)CC2)cc1`, half-maximal inhibition at Cholinesterase (IC50) was put at 53.7 µM. The inhibition is 36.8% at Histamine H3 receptor [4], 80.5% on D(3) dopamine receptor [5] and 65.7% in test [3]. The Ki on Histamine H3 receptor [6] was greater than 10 µM; on D(3) dopamine receptor [7] it was 0.00034 µM.

On to `CN1CCN(CCOC(=O)c2cccc3ccccc23)CC1`, for which the figures for the inhibition (at Histamine H3 receptor [1]; against D(3) dopamine receptor [2]; in [3]) were 69%, 49.7% and 38.3%, respectively.

Turning to `CN1CCN(CCCOC(=O)c2cccc3ccccc23)CC1`, the inhibition at Histamine H3 receptor [1] is 83.8%; against D(3) dopamine receptor [2], 71.5%; in test [3] it was 50.6%. Moreover, the Ki on Histamine H3 receptor [6] was 3.7 µM; on D(3) dopamine receptor [7], greater than 0.01 µM.

Take `c1ccc2c(OCCN3CCN(c4ccncc4)CC3)cccc2c1`: the IC50 stood at 53.7 µM at Acetylcholinesterase and 40.7 µM on Cholinesterase. Further, the figures for the inhibition (on Histamine H3 receptor [4]; against D(3) dopamine receptor [5]; in test [3]) were 54%, 37.7% and 65.4%, respectively.

`CN1CCN(CCOc2ccc3ccccc3c2)CC1`: the inhibition against Histamine H3 receptor [1] was found to be 39.3%; at D(3) dopamine receptor [2], 15.2%; in test [3] it was 48.4%.

`CN1CCN(CCOC(=O)c2ccc3ccccc3c2)CC1` returned a half-inhibitory concentration (IC50) at Cholinesterase of 57.5 µM. Also, the values for the inhibition (against Histamine H3 receptor [1]; at D(3) dopamine receptor [2]; in test [3]) were 78.2%, 53.7% and 74.8%, respectively. For the same molecule, the values for the Ki on Histamine H3 receptor [6] and on D(3) dopamine receptor [7] were 2.2 µM and greater than 0.01 µM, respectively.

In test [3], `c1ccc(N2CCN(CCCOc3cccc4ccccc34)CC2)cc1` gave an inhibition of 22.7%.

On Cholinesterase, `CN1CCN(CCOc2cccc3ccccc23)CC1` returned an IC50 of 58.9 µM. Also, the inhibition on Histamine H3 receptor [1] amounted to 21.3%; on D(3) dopamine receptor [2], 33.5%; in test [3], 64.9%.

As for `Clc1ccc(CCCOCCCN2CCCCC2)cc1`, the inhibition on Histamine H3 receptor [9] amounted to 99.8%.

Regarding `CN1CCN(CCCOC(=O)c2cc3ccccc3o2)CC1`, the inhibition on Histamine H3 receptor [1] was 82.3%; on D(3) dopamine receptor [2], 9%; in test [3] it was 31.7%. Moreover, the results for the Ki on Histamine H3 receptor [6] and on D(3) dopamine receptor [7] were 3.3 µM and greater than 0.01 µM, respectively.

At Cholinesterase, `CN(C)C(=O)Oc1cccc([N+](C)(C)C)c1` [NEOSTIGMINE] yielded an IC50 of 0.16 µM. In test [3], this molecule showed an inhibition greater than 95%.

For the molecule `c1ccc(N2CCN(CCOc3ccc4ccccc4c3)CC2)cc1`, the inhibition against Histamine H3 receptor [4] was determined as 23.3%; on D(3) dopamine receptor [5], 45%; in [3] it was 17.5%.

In the case of `O=C(OCCCN1CCN(c2ccncc2)CC1)c1cc2ccccc2o1`, the IC50 at Acetylcholinesterase was 57.2 µM; against Cholinesterase it was 97.7 µM. For the same molecule, the inhibition against Histamine H3 receptor [4] stood at 88.8%; on D(3) dopamine receptor [5], 18%; in [3] it was 49.9%. Moreover, the Ki on Histamine H3 receptor [6] is 0.27 µM; at D(3) dopamine receptor [7], greater than 0.01 µM.

As for `CN1CCN(CCCOc2cccc3ccccc23)CC1`, 78.5 µM corresponded to half-maximal inhibition at Cholinesterase (IC50). The inhibition at Histamine H3 receptor [1] worked out at 70%; against D(3) dopamine receptor [2], 47.8%; in [3], 60.2%.

With `CN1CCN(CCCOC(=O)c2ccc3ccccc3c2)CC1`, the values for the half-maximal inhibitory concentration (IC50) at Acetylcholinesterase and against Cholinesterase were 97.8 µM and 43.7 µM, respectively. The inhibition at Histamine H3 receptor [1] amounted to 96.3%; at D(3) dopamine receptor [2], 77.7%; in [3], 85.1%. The Ki at Histamine H3 receptor [6] is 1.1 µM; at D(3) dopamine receptor [7], 0.0031 µM.
